In patent EP0287819A1, “5-(phenyl or phenoxyalkyl)-3-(2-furanyl or 2-thienyl)-3-(1H-imidazol-1-ylmethyl)-2-methylisoxazolidines” (FISONS CORPORATION, priority 1987, dated 1988) one finds activity, MIC and inhibitory activity data, which are given here for five compounds.

≈ marks a conversion by molar mass, not a printed value.

What all share (assay): in vitro antifungal activity, broth and agar testing techniques
Format in all cases: cell-based

One assay relates to Aspergilius fumigatus. The conditions noted are these: for activity: in vitro; for MIC: one range stated jointly for Examples 5, 6 and 10 and the three fungi, read-out: minimum inhibitory concentration MIC. The source says: (§1) The compounds of this invention are useful as antifungal agents.
The next assay relates to Candida albicans. The following applies: for inhibitory activity: in vitro; for MIC: one range stated jointly for Examples 5, 6 and 10 and the three fungi, read-out: minimum inhibitory concentration MIC.
Source text: as §1

Another assay has as its system Trichophyton rubrum. The following applies: for activity: in vitro; for MIC: one range stated jointly for Examples 5, 6 and 10 and the three fungi, read-out: minimum inhibitory concentration MIC.
Source text: as §1

The subject of the next assay is Epidermophyton floccosum.
Source text: as §1

Assay [1] relates to Trichophyton mentagrophytes.
Source text: as §1

The test system of assay [2] is Trichophyton schoenleinii.
Source text: as §1

The subject of the next assay is Trichophyton tonsurans.
Source text: as §1

Turning to `CN1OC(c2ccc(Cl)cc2)CC1(Cn1ccnc1)c1cccs1` (single isomer, unassigned) [Example 6, 5-(4-Chlorophenyl)-3-(1H-imidazol-1-ylmethyl)-2-methyl-3-(2-thienyl)isoxazolidine], in the assay on Aspergilius fumigatus, the activity entry is reported as “good to moderate” and the MIC was 0.2 to 70 µg/mL (≈ 0.556 to 195 µM). For the same compound, in the assay with Candida albicans, the inhibitory activity entry is listed as “good to moderate” and the MIC was in the range of 0.2 to 70 µg/mL (≈ 0.556 to 195 µM). Moreover, in the assay on Trichophyton rubrum, the activity entry is “good to moderate” and the MIC was 0.2 to 70 µg/mL (≈ 0.556 to 195 µM).
Turning to `CN1OC(c2ccccc2)CC1(Cn1ccnc1)c1cccs1` (single isomer, unassigned) [Example 5, 3-(1H-Imidazol-1-ylmethyl)-2-methyl-5-phenyl-3-(2-thienyl)isoxazolidine], the activity result in the assay on Aspergilius fumigatus and with Trichophyton rubrum was “good to moderate” in each case. In addition, the MIC with Aspergilius fumigatus, in the assay on Candida albicans and in the assay with Trichophyton rubrum was 0.2 to 70 µg/mL (≈ 0.615 to 215 µM) in each case. For the same compound, in the assay with Candida albicans, the inhibitory activity entry was “good to moderate”.
Turning to `CN1OC(COc2ccc(Cl)cc2)CC1(Cn1ccnc1)c1ccco1` (single isomer, unassigned) [Example 3, 5-(4-Chlorophenoxymethyl)-3-(2-furanyl)-3-(1H-imidazol-1-ylmethyl)-2-methylisoxazolidine], the inhibitory activity entry (in the assay with Candida albicans; with Epidermophyton floccosum; in assay [1]; in assay [2]; with Trichophyton tonsurans) was “good to moderate” each time.
`CN1OC(c2ccc(Cl)cc2)CC1(Cn1ccnc1)c1ccco1` (single isomer, unassigned) [Example 1, 5-(4-Chlorophenyl)-3-(2-furanyl)-3-(1H-imidazol-1-ylmethyl) -2-methylisoxazolidine]: the inhibitory activity result (in the assay on Candida albicans; in the assay with Epidermophyton floccosum; in assay [1]; in assay [2]; with Trichophyton tonsurans) was “good to moderate” in each case.
On to `Cc1ccc(SCC2CC(Cn3ccnc3)(c3cccs3)N(C)O2)cc1` (single isomer, unassigned) [Example 10, 3-(1H-Imidazol-1-ylmethyl)-2-methyl-5-[[(4-methylphenyl)thio]methyl]-3-(2-thienyl)isoxazolidine], for which, in the assay on Aspergilius fumigatus, the activity result is “good to moderate” and the MIC fell in the range of 0.2 to 70 µg/mL (≈ 0.519 to 182 µM). In addition, in the assay on Candida albicans, the inhibitory activity entry was “good to moderate” and the MIC is 0.2 to 70 µg/mL (≈ 0.519 to 182 µM). Moreover, in the assay on Trichophyton rubrum, the activity result is reported as “good to moderate” and the MIC lay within 0.2 to 70 µg/mL (≈ 0.519 to 182 µM).
